Reference: patent US20100331315A1, “RHODANINES AND RELATED HETEROCYCLES AS KINASE INHIBITORS” (priority 2009, published 2010)
Like-named read-outs stand apart in the source and are kept apart here.

What was measured:
[1] = molecular target: T1, recombinant human CK2 (Homo sapiens, UniProt P68400); assay: CK2 assay (cell-free, 33P-ATP filter plate); assay type: biochemical
T1 construct: purchased Upstate
Experimental: Modulatory activity of compounds described herein was assessed in vitro in cell-free CK2 assays by the following method.
Test compounds in aqueous solution were added at a volume of 10 microliters, to a reaction mixture comprising 10 microliters Assay Dilution Buffer (ADB; 20 mM MOPS, pH 7.2, 25 mM beta-glycerolphosphate, 5 mM EGTA, 1 mM sodium orthovanadate and 1 mM dithiothreitol), 10 microliters of substrate peptide (RRRDDDSDDD, dissolved in ADB at a concentration of 1 mM), 10 microliters of recombinant human CK2 (25 ng dissolved in ADB; Upstate). Reactions were initiated by the addition of 10 microliters of ATP Solution (90% 75 mM MgCl2, 75 micromolar ATP dissolved in ADB; 10% [γ-^33P]ATP (stock 1 mCi/100 μl; 3000 Ci/mmol (Perkin Elmer) and maintained for 10 minutes at 30 degrees C. The reactions were quenched with 100 microliters of 0.75% phosphoric acid, then transferred to and filtered through a phosphocellulose filter plate (Millipore). After washing each well 5 times with 0.75% phosphoric acid, the plate was dried under vacuum for 5 min and, following the addition of 15 ul of scintillation fluid to each well, the residual radioactivity was measured using a Wallac luminescence counter.

[2] = molecular target: recombinant PIM-1 (Homo sapiens, UniProt P11309); assay: PIM-1 assay (33P-ATP filter plate); assay type: biochemical; details: read-out: PIM1: IC50
Experimental: The following procedure was used to assay the PIM-1 kinase activity of compounds of the invention. Other methods for assaying PIM-1 and other PIM kinases, as well as methods to assay for activity against the various kinases are known in the art.
In a final reaction volume of 50 ul, recombinant PIM-1 (1 ng) was incubated with 12 mM MOPS pH 7.0, 0.4 mM EDTA, glycerol 1%, brij 35 0.002%, 2-mercaptoethanol 0.02%, BSA 0.2 mg/ml, 100 uM KKRNRTLTK, 10 mM MgAcetate, 15 uM ATP, [γ-^33P-ATP] (specific activity approx. 500 cpm/pmol), DMSO 4% and test inhibitor compound at the required concentration. The reaction was initiated by the addition of the Magnesium ATP mixture. After 40 min incubation at 23° C., the reactions were quenched by the addition of 100 ul 0.75% Phosphoric acid, and the labeled peptide collected by filtration through a phosphocellulose filter plate. The plate was washed 4 times with 0.075% phosphoric acid (100 ul per well) and then, after the addition of scintillation fluid (20 ul per well), the counts were measured by a scintillation counter.

[3] = tested on: K-562; assay: Alamar Blue cell proliferation assay, K-562; assay type: cell-based; details: Homo sapiens
Experimental: (§1) A representative cell-proliferation assay protocol using Alamar Blue dye (stored at 4° C., use 20 ul per well) is described hereafter.
(§2) a. Split and trypsinize cells.
(§3) b. Count cells using hemocytometer.
(§4) c. Plate 4,000-5,000 cells per well in 100 μl of medium and seed into a 96-well plate according to the following plate layout. Add cell culture medium only to wells B10 to B12. Wells B1 to B9 have cells but no compound added.
(§5) d. Add 100 μl of 2× drug dilution to each well in a concentration shown in the plate layout above. At the same time, add 100 μl of media into the control wells (wells B10 to B12). Total volume is 200 μl/well.
(§6) e. Incubate four (4) days at 37° C., 5% CO2 in a humidified incubator.
(§7) f. Add 20 μl Alamar Blue reagent to each well.
(§8) g. Incubate for four (4) hours at 37° C., 5% CO2 in a humidified incubator.
(§9) h. Record fluorescence at an excitation wavelength of 544 nm and emission wavelength of 590 nm using a microplate reader.
(§10) In the assays, cells are cultured with a test compound for approximately four days, the dye is then added to the cells and fluorescence of […] dye is detected after approximately four hours. Different types of cells can be utilized in the assays (e.g., HCT-116 human colorectal carcinoma cells, PC-3 human prostatic cancer cells and MiaPaca human pancreatic carcinoma cells).

[4] = tested on: MV-4-11; assay: Alamar Blue cell proliferation assay, MV-4-11; assay type: cell-based; details: Homo sapiens
Experimental: as §1, §2, §3, §4, §5, §6, §7, §8, §9, §10

[5] = tested on: MDAMB231; assay: Alamar Blue cell proliferation assay, MDAMB231; assay type: cell-based; details: Homo sapiens
Experimental: as §1, §2, §3, §4, §5, §6, §7, §8, §9, §10

[6] = tested on: MiaPaca human pancreatic carcinoma cells; assay: Alamar Blue cell proliferation assay, MiaPaCa; assay type: cell-based
Experimental: as §1, §2, §3, §4, §5, §6, §7, §8, §9, §10

[7] = tested on: PC-3 human prostatic cancer cells; assay: Alamar Blue cell proliferation assay, PC3; assay type: cell-based
Experimental: as §1, §2, §3, §4, §5, §6, §7, §8, §9, §10

[8] = K562, K-562, Table 1, read-out: AB: K-562 IC50
[9] = MV4-11, MV-4-11, Table 1, read-out: AB: MV-4-11 IC50
[10] = MDA-MB-231, MDAMB231, Table 1, read-out: AB: MDAMB231 IC50
[11] = MIA PaCa-2, Table 1, read-out: AB: MiaPaCa IC50
[12] = PC-3, PC3, Table 1, read-out: AB: PC3
[13] = K562, K-562, Table 2, read-out: AB: K-562 IC50
[14] = MV4-11, MV-4-11, Table 2, read-out: AB: MV-4-11 IC50
[15] = MDA-MB-231, MDAMB231, Table 2, read-out: AB: MDAMB231 IC50
[16] = MIA PaCa-2, Table 2, read-out: AB: MiaPaCa IC50
[17] = PC3, Table 2, read-out: AB: PC3 IC50

T1 sequence (P68400 whole entry): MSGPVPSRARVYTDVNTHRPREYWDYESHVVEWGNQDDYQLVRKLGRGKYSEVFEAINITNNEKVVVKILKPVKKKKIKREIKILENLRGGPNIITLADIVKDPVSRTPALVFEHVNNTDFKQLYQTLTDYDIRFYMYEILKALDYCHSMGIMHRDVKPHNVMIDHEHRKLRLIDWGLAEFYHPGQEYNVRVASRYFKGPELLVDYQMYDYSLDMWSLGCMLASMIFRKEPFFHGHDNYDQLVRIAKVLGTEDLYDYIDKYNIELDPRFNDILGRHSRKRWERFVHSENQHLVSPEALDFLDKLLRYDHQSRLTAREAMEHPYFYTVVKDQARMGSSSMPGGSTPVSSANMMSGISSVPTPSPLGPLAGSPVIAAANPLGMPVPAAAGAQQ
T1 sequence (P67870 whole entry partner): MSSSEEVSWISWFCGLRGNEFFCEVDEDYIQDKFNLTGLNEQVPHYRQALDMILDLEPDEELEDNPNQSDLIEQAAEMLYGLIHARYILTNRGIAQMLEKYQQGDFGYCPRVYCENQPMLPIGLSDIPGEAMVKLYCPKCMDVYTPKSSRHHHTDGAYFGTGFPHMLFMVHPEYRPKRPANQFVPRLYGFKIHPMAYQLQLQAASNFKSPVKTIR
Sequence of recombinant PIM-1 (P11309 whole entry): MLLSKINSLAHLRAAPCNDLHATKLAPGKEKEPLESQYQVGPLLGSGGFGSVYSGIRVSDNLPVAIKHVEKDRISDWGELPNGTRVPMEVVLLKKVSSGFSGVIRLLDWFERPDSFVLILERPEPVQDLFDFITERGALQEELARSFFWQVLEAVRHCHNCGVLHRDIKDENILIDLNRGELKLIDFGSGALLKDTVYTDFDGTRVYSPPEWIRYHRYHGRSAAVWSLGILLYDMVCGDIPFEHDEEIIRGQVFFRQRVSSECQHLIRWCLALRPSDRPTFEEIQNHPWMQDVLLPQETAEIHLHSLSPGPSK

CN(C)NC(=O)c1cccc(-c2ccc(/C=C3\SC(=S)NC3=O)o2)c1
IC50 ([1]; Table 1): 0.094 µM | IC50 ([2]; Table 1): 0.036 µM | IC50 [3, 8]: > 10 µM | IC50 [4, 9]: > 10 µM | IC50 [5, 10]: > 10 µM | IC50 [6, 11]: > 10 µM | IC50 [7, 12]: > 30 µM

COCCNC(=O)c1cccc(-c2ccc(/C=C3\SC(=S)NC3=O)o2)c1
IC50 ([1]; Table 1): 0.123 µM | IC50 ([2]; Table 1): 0.031 µM | IC50 [3, 8]: > 10 µM | IC50 [4, 9]: > 10 µM | IC50 [5, 10]: > 10 µM | IC50 [6, 11]: > 10 µM | IC50 [7, 12]: > 30 µM

O=C1NC(=S)S/C1=C\c1ccc(-c2cc(C(=O)O)ccc2Cl)o1
IC50 ([1]; Table 1): 0.027 µM | IC50 ([2]; Table 1): 0.199 µM | IC50 [3, 8]: > 10 µM | IC50 [4, 9]: > 10 µM | IC50 [5, 10]: > 10 µM | IC50 [6, 11]: > 10 µM | IC50 [7, 12]: > 30 µM

NC(=O)c1cccc(-c2ccc(/C=C3\SC(=S)NC3=O)o2)c1
IC50 ([1]; Table 1): 0.004 µM | IC50 ([2]; Table 1): 0.004 µM | IC50 [3, 8]: > 10 µM | IC50 [4, 9]: > 10 µM | IC50 [5, 10]: > 10 µM | IC50 [6, 11]: > 10 µM | IC50 [7, 12]: > 10 µM

O=C1NC(=O)/C(=C\c2ccc(-c3ccc(C(=O)O)cc3)o2)S1
IC50 ([1]; Table 2): 0.009 µM | IC50 ([2]; Table 2): 0.041 µM | IC50 [3, 13]: > 10 µM | IC50 [4, 14]: > 1 µM | IC50 [5, 15]: > 10 µM | IC50 [6, 16]: > 10 µM | IC50 [7, 17]: > 30 µM

O=C1NC(=S)S/C1=C\c1ccc(-c2cccc(C(=O)N3CCCNCC3)c2)o1
IC50 ([1]; Table 1): 0.412 µM | IC50 ([2]; Table 1): 0.009 µM | IC50 [3, 8]: > 10 µM | IC50 [4, 9]: > 10 µM | IC50 [5, 10]: > 10 µM | IC50 [6, 11]: > 10 µM | IC50 [7, 12]: > 30 µM

CN1CCCCC1CNC(=O)c1ccc(-c2ccc(/C=C3\SC(=S)NC3=O)o2)cc1 (stereo not shown)
IC50 ([1]; Table 1): 0.471 µM | IC50 ([2]; Table 1): 0.037 µM | IC50 [3, 8]: > 10 µM | IC50 [4, 9]: > 10 µM | IC50 [5, 10]: > 10 µM | IC50 [6, 11]: > 10 µM | IC50 [7, 12]: > 30 µM

CCN(CC)CCNC(=O)c1ccc(-c2ccc(/C=C3\SC(=S)NC3=O)o2)cc1
IC50 ([1]; Table 1): 0.131 µM | IC50 ([2]; Table 1): 0.006 µM | IC50 [3, 8]: > 10 µM | IC50 [4, 9]: > 10 µM | IC50 [5, 10]: > 10 µM | IC50 [6, 11]: > 10 µM | IC50 [7, 12]: > 30 µM

Cn1cncc1CNC(=O)c1ccc(-c2ccc(/C=C3\SC(=S)NC3=O)o2)cc1
IC50 ([1]; Table 1): 0.108 µM | IC50 ([2]; Table 1): 0.035 µM | IC50 [3, 8]: > 10 µM | IC50 [4, 9]: > 10 µM | IC50 [5, 10]: > 10 µM | IC50 [6, 11]: > 10 µM | IC50 [7, 12]: > 30 µM

O=C1NC(=S)S/C1=C\c1ccc(-c2cccc(C(=O)N3CC[C@H](F)C3)c2)o1
IC50 ([1]; Table 1): 0.012 µM | IC50 ([2]; Table 1): 0.013 µM | IC50 [3, 8]: > 10 µM | IC50 [4, 9]: 9.5 µM | IC50 [5, 10]: > 10 µM | IC50 [6, 11]: > 10 µM | IC50 [7, 12]: > 30 µM

O=C1NC(=S)S/C1=C\c1ccc(-c2cccc(C(=O)N3CC[C@@H](F)C3)c2)o1
IC50 ([1]; Table 1): 0.026 µM | IC50 ([2]; Table 1): 0.04 µM | IC50 [3, 8]: > 10 µM | IC50 [4, 9]: > 10 µM | IC50 [5, 10]: > 10 µM | IC50 [6, 11]: > 10 µM | IC50 [7, 12]: > 30 µM

O=C1NC(=S)S/C1=C\c1ccc(-c2ccc(C(=O)NCc3ccccn3)cc2)o1
IC50 ([1]; Table 1): 0.04 µM | IC50 ([2]; Table 1): 0.286 µM | IC50 [3, 8]: > 10 µM | IC50 [4, 9]: 8.83 µM | IC50 [5, 10]: > 10 µM | IC50 [6, 11]: > 10 µM | IC50 [7, 12]: > 30 µM

O=C1NC(=S)S/C1=C\c1ccc(-c2cccc(C(=O)NN3CCCCC3)c2)o1
IC50 ([1]; Table 1): 0.551 µM | IC50 ([2]; Table 1): 0.086 µM | IC50 [3, 8]: > 10 µM | IC50 [4, 9]: > 10 µM | IC50 [5, 10]: > 10 µM | IC50 [6, 11]: > 10 µM | IC50 [7, 12]: > 30 µM

O=C1NC(=S)S/C1=C\c1ccc(-c2ccccc2)o1
IC50 ([1]; Table 1): 0.004 µM | IC50 ([2]; Table 1): 0.059 µM | IC50 [3, 8]: > 10 µM | IC50 [4, 9]: > 10 µM | IC50 [5, 10]: > 10 µM | IC50 [6, 11]: > 10 µM | IC50 [7, 12]: > 10 µM

CN1CCCN(C(=O)c2cccc(-c3ccc(/C=C4/SC(=O)NC4=O)o3)c2)CC1
IC50 ([1]; Table 2): 0.011 µM | IC50 ([2]; Table 2): 0.111 µM | IC50 [3, 13]: > 10 µM | IC50 [4, 14]: > 1 µM | IC50 [5, 15]: > 10 µM | IC50 [6, 16]: > 10 µM | IC50 [7, 17]: > 30 µM

Cc1nccn1CCNC(=O)c1ccc(-c2ccc(/C=C3\SC(=S)NC3=O)o2)cc1
IC50 ([1]; Table 1): 0.226 µM | IC50 ([2]; Table 1): 0.014 µM | IC50 [3, 8]: > 10 µM | IC50 [4, 9]: > 10 µM | IC50 [5, 10]: > 10 µM | IC50 [6, 11]: > 10 µM | IC50 [7, 12]: > 30 µM
